Columns and labels:
[1] = tested on: amyloid plaques; assay: Autoradiography using postmortem brain section of patient with Alzheimer's disease (Example 7); assay type: binding, human (Alzheimer's disease patient); conditions: brain section (temporal lobe) of Alzheimer's disease patient; 0.37 MBq/100 μL, 1 hour
Procedure: A postmortem autopsy brain section (temporal lobe) of a patient with Alzheimer's disease was incubated together with each of [^18F]E3, [^18F]D3, [^18F]E1, and [^18F]E2 (0.37 MBq/100 μL each) at room temperature for 1 hour. The resultant was washed with a 50 volume % ethanol aqueous solution (2 minutes×2) and water (2 minutes×2), and after drying, the section was contacted with BAS imaging plate (from Fujifilm Corporation) for 1.5 hours. The image of autoradiography was obtained using BAS5000 scanner system (from Fujifilm Corporation).
A section adjacent to the brain section used was immunostained in the following manner.
First, a paraffin-embedded brain section of the Alzheimer's disease patient (temporal lobe, 6 μm in thickness) was incubated with xylene (15 minutes×2), ethanol (1 minute×2), a 90 volume % ethanol aqueous solution (1 minute×2), and a 70 volume % ethanol aqueous solution (1 minute×1) in that order for complete deparaffinization, and then washed in water (2.5 minutes×2). Thereafter, the section was subjected to autoclave treatment for 15 minutes in 0.01 mol/L citrate buffer solution (pH 6.0). The resultant was incubated in PBS-Tween20 (5 minutes×2), and a mouse anti-Aβ1-42 primary monoclonal antibody (from Wako Pure Chemical Industries Ltd.) was then added thereto, which was then incubated at room temperature overnight. The resultant was incubated in PBS-Tween20 (2 minutes×3), and a biotin-goat anti-mouse IgG (from Funakoshi Co., Ltd.) was then added thereto, which was then incubated at room temperature for 1 hour. The resultant was incubated in PBS-Tween20 (5 minutes×3), and a streptavidin-peroxidase complex (from Funakoshi Co., Ltd.) was added thereto, which was then incubated at room temperature for 30 minutes. In addition, the resultant was incubated in PBS-Tween20 (2 minutes×3); 3,3′-diaminobenzidine was added thereto, which was then incubated at room temperature for 30 minutes; and after washing with water, the section was observed under a microscope to provide an immunostained image (FIG. 10).

[2] = In vivo radioactivity distribution experiment (Example 8); conditions: ddY mice, tail vein, SD in parenthesis
Procedure: Through the tail vein of ddY mice (male, 5 week-old) was injected each of a 10 volume % ethanol-containing saline solution of [^18F]E3 (45.4 kBq, 100 μL), a 10 volume % ethanol-containing saline solution of [^18F]D3 (38.2 kBq, 100 μL), a 10 volume % ethanol-containing saline solution of [^18F]E1 (45.1 kBq, 100 μL), and a 10 volume % ethanol-containing saline solution of [^18F]E2 (40.6 kBq, 100 μL). Five mice were used for each group and sacrificed 2, 10, 30, and 60 minutes after administration to remove major organs. The blood and organs were weighed and further measured for radioactivity using a γ counter. The amount of radioactivity per unit mass was measured in each organ to evaluate radioactivity distribution.

[3] = tested on: amyloid plaques in the brain; assay: Ex vivo autoradiography using Alzheimer's disease model mouse (Example 9); assay type: in vivo; conditions: Tg2576 mouse (24-month old) vs normal mouse; tail vein; 1 hour after administration
Procedure: To confirm whether the compound 2 has the performance capable of visualizing amyloid plaques in the brain, an image was taken by ex vivo autoradiography in a Tg2576 mouse as one of Alzheimer's disease model animals.
[^18F]D3 (55.5 MBq (1.5 mCi)/200 μL) was administered to a Tg2576 mouse (24-month old, female) and a normal mouse (24-month old, female) through their tail vein. Each mouse was sacrificed 1 hour after administration, and the brain was removed, embedded in a carboxymethylcellulose solution, and frozen in a dry ice-hexane bath, followed by preparing frozen sections having a thickness of 30 μm using a cryostat (Leica). The resultant brain tissue sections were each placed on an imaging plate (Model BAS-SR, from Fujifilm Corporation) for 30 minutes for exposure, and the respective autoradiographs were obtained using an image analyzer (Bio Imaging Analyzer Model BAS5000, from Fujifilm Corporation). The same sections were each stained with thioflavin S ([…]), washed, and observed under a fluorescent microscope.

Sequence of amyloid plaques (P05067 672-711 limits assumed): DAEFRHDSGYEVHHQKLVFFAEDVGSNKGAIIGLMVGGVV
Sequence of amyloid plaques in the brain (P05067 672-711 limits assumed): as above

4-(6-(2-[^18F]Fluoroethoxy)quinoxalin-2-yl)-N,N-dimethylaniline [[^18F]D3]
visualization of gray matter / amyloid plaques by autoradiography [1]: amyloid plaques were visualized | Radioactivity Amount, Blood ([2]; 2 min. after): 2.66 (0.50) % injected dose/g | Radioactivity Amount, Blood ([2]; 10 min. after): 2.29 (0.25) % injected dose/g | Radioactivity Amount, Blood ([2]; 30 min. after): 2.98 (0.29) % injected dose/g | Radioactivity Amount, Blood ([2]; 60 min. after): 3.26 (0.37) % injected dose/g | Radioactivity Amount, Bone ([2]; 2 min. after): 2.65 (0.61) % injected dose/g | Radioactivity Amount, Bone ([2]; 10 min. after): 2.75 (0.36) % injected dose/g | Radioactivity Amount, Bone ([2]; 30 min. after): 2.82 (0.78) % injected dose/g | Radioactivity Amount, Bone ([2]; 60 min. after): 2.77 (1.27) % injected dose/g | Radioactivity Amount, Brain ([2]; 2 min. after): 5.67 (0.48) % injected dose/g | Radioactivity Amount, Brain ([2]; 10 min. after): 6.39 (0.51) % injected dose/g | Radioactivity Amount, Brain ([2]; 30 min. after): 3.73 (0.50) % injected dose/g | Radioactivity Amount, Brain ([2]; 60 min. after): 2.61 (0.37) % injected dose/g | Radioactivity Amount, Heart ([2]; 2 min. after): 8.50 (1.40) % injected dose/g | Radioactivity Amount, Heart ([2]; 10 min. after): 4.19 (0.47) % injected dose/g | Radioactivity Amount, Heart ([2]; 30 min. after): 3.29 (0.68) % injected dose/g | Radioactivity Amount, Heart ([2]; 60 min. after): 3.74 (0.72) % injected dose/g | Radioactivity Amount, Intestine ([2]; 2 min. after): 2.56 (0.10) % injected dose/g | Radioactivity Amount, Intestine ([2]; 10 min. after): 5.27 (0.27) % injected dose/g | Radioactivity Amount, Intestine ([2]; 30 min. after): 9.82 (1.43) % injected dose/g | Radioactivity Amount, Intestine ([2]; 60 min. after): 12.3 (0.79) % injected dose/g | Radioactivity Amount, Kidney ([2]; 2 min. after): 10.7 (0.96) % injected dose/g | Radioactivity Amount, Kidney ([2]; 10 min. after): 6.66 (0.45) % injected dose/g | Radioactivity Amount, Kidney ([2]; 30 min. after): 4.19 (0.78) % injected dose/g | Radioactivity Amount, Kidney ([2]; 60 min. after): 3.30 (0.39) % injected dose/g | Radioactivity Amount, Liver ([2]; 2 min. after): 10.3 (1.00) % injected dose/g | Radioactivity Amount, Liver ([2]; 10 min. after): 9.83 (0.22) % injected dose/g | Radioactivity Amount, Liver ([2]; 30 min. after): 6.91 (0.81) % injected dose/g | Radioactivity Amount, Liver ([2]; 60 min. after): 6.65 (0.90) % injected dose/g | Radioactivity Amount, Lung ([2]; 2 min. after): 8.94 (1.76) % injected dose/g | Radioactivity Amount, Lung ([2]; 10 min. after): 4.59 (1.07) % injected dose/g | Radioactivity Amount, Lung ([2]; 30 min. after): 3.51 (0.44) % injected dose/g | Radioactivity Amount, Lung ([2]; 60 min. after): 3.39 (0.14) % injected dose/g | Radioactivity Amount, Pancreas ([2]; 2 min. after): 6.55 (0.63) % injected dose/g | Radioactivity Amount, Pancreas ([2]; 10 min. after): 4.74 (0.42) % injected dose/g | Radioactivity Amount, Pancreas ([2]; 30 min. after): 2.73 (0.50) % injected dose/g | Radioactivity Amount, Pancreas ([2]; 60 min. after): 2.74 (0.19) % injected dose/g | Radioactivity Amount, Spleen ([2]; 2 min. after): 2.86 (0.66) % injected dose/g | Radioactivity Amount, Spleen ([2]; 10 min. after): 4.09 (0.33) % injected dose/g | Radioactivity Amount, Spleen ([2]; 30 min. after): 2.66 (0.57) % injected dose/g | Radioactivity Amount, Spleen ([2]; 60 min. after): 3.07 (0.68) % injected dose/g | Radioactivity Amount, Stomach* ([2]; 2 min. after): 1.09 (0.05) % injected dose per organ | Radioactivity Amount, Stomach* ([2]; 10 min. after): 1.64 (0.28) % injected dose per organ | Radioactivity Amount, Stomach* ([2]; 30 min. after): 1.98 (0.47) % injected dose per organ | Radioactivity Amount, Stomach* ([2]; 60 min. after): 2.06 (0.46) % injected dose per organ | visualization of amyloid plaques in the brain, ex vivo autoradiography [3]: could visualize amyloid plaques in the brain

Source: patent publication US20140088306A1, “RADIOACTIVE FLUORINE-LABELED QUINOXALINE COMPOUND” (Nihon Medi-Physics Co., Ltd., priority 2012, published 2014)
